# Reference: patent US11576933B2, “Compositions and methods for an improved antitumor immune response” (EFFECTOR THERAPEUTICS, INC., priority 2017, dated 2023)
# Key:
# [1] = tested on: fibroblasts (Lonza #CC-2512); assay: Procollagen type 1 C-Peptide (PIPC) secretion from fibroblasts co-treated with TGFβ, (PIP) EIA kit; assay type: cell-based; conditions: 24 hours co-incubation with 10 ng/ml TGFβ; inhibitor 0, 1.5, 4, 13 or 40 nM; FIGS. 2A and 2B
# Description: (§1) Myofibroblasts are believed to be associated with tumor growth, vascularization, and metastasis (see, e.g., Webber et al., Cancer Res. 70:9621, 2010). The ability of Cmp1 or Cmp2 to inhibit the TGFβ-mediated fibroblast-to-myofibroblast transformation and components of the extracellular matrix was evaluated in fibroblasts.
# (§2) Briefly, fibroblasts (Lonza #CC-2512; cell passage numbers 2 through 5 were used for all experiments) were seeded (Day 0) and cultured in Dulbecco's modified Eagle medium (DMEM) supplemented with 10% fetal bovine serum (FBS), penicillin, streptomycin and glutamax (Invitrogen) at 37° C. in a humidified incubator with 5% CO2 overnight. On Day 1, cells were washed with phosphate buffered saline (PBS), and then incubated for 48 hours in fresh serum-free DMEM supplemented with penicillin, streptomycin, and glutamax. […]
# (§3) After a 24-hour incubation period, the effects of eIF4A inhibition on fibroblast transformation and production of extracellular matrix components were evaluated. Smooth muscle actin (α-SMA) protein levels were analyzed by western blot. Procollagen type 1 C-Peptide (PIPC) levels were analyzed by collecting culture media, centrifuging to pellet cellular debris, and quantifying using the (PIP) EIA kit (Clontech, Cat. No. MK101) according to the manufacturer's instructions.
# [2] = tested on: fibroblasts (Lonza #CC-2512); assay: α-SMA protein level by western blot in fibroblasts co-treated with TGFβ (fibroblast-to-myofibroblast transformation); assay type: cell-based; conditions: 24 hours co-incubation with 10 ng/ml TGFβ, inhibitor 0, 1.5, 4, 13 or 40 nM, FIG. 1
# Description: as §1, §2, §3
# [3] = tested on: KPC-3 (mouse pancreatic carcinoma) tumor; assay: Tumor infiltrating lymphocytes (CD3+/CD8+ IHC) in allograft KPC-3 tumor model; assay type: in vivo; conditions: parenterally, C57BL/6J mice, versus vehicle; for CD3+ T cells in the KPC-3 tumor samples: FIG. 4B
# Description: To evaluate the effect of an eIF4A inhibitor on tumor infiltrating lymphocytes, an allograft tumor model was used. Briefly, KPC-3 (mouse pancreatic carcinoma) cells grown in DMEM supplemented with 10% FBS were harvested during exponential growth and counted for tumor inoculation in immune competent C57BL/6J mice. Each mouse was inoculated subcutaneously with 0.1×10^6 KPC-3 tumor cells in the right flank region in 0.1 mL volume comprising a 1:1 ratio (volume to volume) of cells in growth media and Matrigel® matrix (BD Biosciences, San Jose Calif.). Tumors were grown to 100-200 mm^3 prior to study initiation. Before beginning treatment, all animals were weighed and tumor volumes measured using a caliper. Since the tumor volume can affect the effectiveness of any given treatment, mice were randomly assigned into vehicle and test article treatment groups after tumors had reached a similar size. Each study group contained 8 mice, with each group receiving either vehicle (D5W) or Cmp1 administered parenterally on two dosing schedules (0.33 mg/kg Q2D and 1 mg/kg Q1W for 17 days). Following treatment, tumor biopsies were collected for four representative animals from each treatment group, formalin-fixed, and paraffin-embedded. Tumor samples were sectioned and stained with anti-CD3 and anti-CD8 antibodies or isotype control. A hematoxylin nuclear counterstain was also applied. Image analysis and quantification were conducted using ImageDx™. Increased CD3^+ and CD8^+ T cell staining within the tumor sample for eIF4A inhibitor treatment relative to vehicle indicates an increase in infiltrating lymphocytes into the tumor.
# myofibroblasts [4] = assay: TGFβ secretion from pre-formed myofibroblasts, Human TGF-B1 ELISA kit; assay type: cell-based; conditions: myofibroblasts pre-formed with 10 ng/ml TGFβ 24 hours, washed; inhibitor 0-100 nM for 48 hours; FIG. 3A
# Description: (§4) Briefly, fibroblasts (Lonza #CC-2512; cell passage numbers 2 through 5 were used for all experiments) were seeded (Day 0) and cultured in Dulbecco's modified Eagle medium (DMEM) supplemented with 10% fetal bovine serum (FBS), penicillin, streptomycin and glutamax (Invitrogen) at 37° C. in a humidified incubator with 5% CO2 overnight. On Day 1, cells were washed with phosphate buffered saline (PBS), and then incubated for 72 hours in fresh serum-free DMEM supplemented with penicillin, streptomycin, and glutamax. On Day 4, cells were washed, followed by addition of fresh serum-free DMEM containing 10 ng/ml TGFβ, and cultured for 24 hours. On Day 5, cells were washed, followed by addition of fresh serum-free DMEM containing eIF4A inhibitor Cmp1 (0, 1.2, 3.7, 11.1, 33.3 or 100 nM), and cultured. Controls included untreated cells. At 48 hours post-addition of eIF4A inhibitor, 300 ul of culture media was harvested, centrifuged to pellet cellular debris, and frozen at −80° C. TGFβ1 in the culture medium was quantified using the Human TGF-B1 ELISA kit (R&D System DY240-05) according to the manufacturer's instructions. Procollagen type 1 C-Peptide (PIPC) levels were analyzed using the (PIP) EIA kit (Clontech, Cat. No. MK101) according to the manufacturer's instructions.
# myofibroblasts [5] = assay: Procollagen type 1 C-Peptide (PIPC) secretion from pre-formed myofibroblasts, (PIP) EIA kit; assay type: cell-based; conditions: myofibroblasts pre-formed with 10 ng/ml TGFβ 24 hours, washed; inhibitor 0-100 nM for 48 hours; FIG. 3B
# Description: as §4
Compound,procollagen type I secretion (PIPC) [1],α-SMA protein level (ratio of α-SMA to β-actin) [2],CD3+ T cells in the KPC-3 tumor samples ([3]; 0.3 mg/kg Q2D for 17 days),CD3+ T cells in the KPC-3 tumor samples ([3]; 1 mg/kg Q1W for 17 days),"CD8+ T cells in the KPC-3 tumor samples ([3]; 1 mg/kg Q1W for 17 days, FIG. 4C)",levels of secreted TGFβ (myofibroblasts [4]),procollagen type I levels (myofibroblasts [5])
"COc1nc(Cl)cc2c1[C@]1(O)[C@H](O)[C@H](CN(C)C)[C@@H](c3ccccc3)[C@]1(c1ccc(C#N)cc1)O2 [Cmp2, 4-((5aR,6S,7S,8R,8aS)-3-chloro-7-((dimethylamino)methyl)-8,8a-dihydroxy-1-methoxy-6-phenyl-6,7,8,8a-tetrahydro-5aH-cyclopenta[4,5]furo[3,2-c]pyridin-5a-yl)benzonitrile]",blocked the increase,dose-dependent reduction,–,–,–,–,–
COc1cc2c(c(OC)n1)[C@]1(O)[C@H](O)[C@H](CN(C)C)[C@@H](c3ccccc3)[C@]1(c1ccc(C#N)cc1)O2 (racemic) [Cmp1],blocked the increase,dose-dependent reduction,significant increase,significant increase,significant increase,reduced the levels of secreted TGFβ in a dose-dependent manner,dose-dependent decrease
